Test results as given in US20230114241A1, “METHODS OF TREATING EPILEPSY USING THE SAME” (Trevena, Inc., priority 2019, published 2023).

Experiments:
[1] = target: T1, human sphingosine-1-phosphate receptor 1 (S1P1) (Homo sapiens, UniProt P21453); experiment: β-Arrestin2 recruitment assay (PathHunter), S1P1 CHO-K1 cells; format: cell-based; conditions: for Emax: efficacy normalized to maximum efficacy of fingolimod, read-out: hS1P1 B-arrestin2 SPAN; for EC50: β-arrestin2 recruitment, read-out: hS1P1 B-arrestin2 pEC50 (converted)
Summary of the method: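 Agonist-driven β-arrestin2 recruitment measured by β-galactosidase complementation after 60 min compound exposure at 37 °C and 1 h detection at room temperature. Cells: stable CHO-K1 line expressing tagged human S1P1 with EA-β-arrestin2, plated the night before. Data expressed relative to fingolimod.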
Target sequence in this assay (P21453 whole entry): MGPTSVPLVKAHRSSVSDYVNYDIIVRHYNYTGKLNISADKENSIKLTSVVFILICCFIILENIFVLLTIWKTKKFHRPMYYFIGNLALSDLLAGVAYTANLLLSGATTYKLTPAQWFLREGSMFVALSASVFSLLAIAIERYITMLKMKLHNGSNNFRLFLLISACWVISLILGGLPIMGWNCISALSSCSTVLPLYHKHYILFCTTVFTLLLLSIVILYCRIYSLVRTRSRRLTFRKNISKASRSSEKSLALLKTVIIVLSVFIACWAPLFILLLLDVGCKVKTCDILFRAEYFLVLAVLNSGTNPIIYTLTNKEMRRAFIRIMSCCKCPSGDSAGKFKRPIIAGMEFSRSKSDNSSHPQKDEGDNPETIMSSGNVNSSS
Target sequence in this assay (P32121 whole entry partner): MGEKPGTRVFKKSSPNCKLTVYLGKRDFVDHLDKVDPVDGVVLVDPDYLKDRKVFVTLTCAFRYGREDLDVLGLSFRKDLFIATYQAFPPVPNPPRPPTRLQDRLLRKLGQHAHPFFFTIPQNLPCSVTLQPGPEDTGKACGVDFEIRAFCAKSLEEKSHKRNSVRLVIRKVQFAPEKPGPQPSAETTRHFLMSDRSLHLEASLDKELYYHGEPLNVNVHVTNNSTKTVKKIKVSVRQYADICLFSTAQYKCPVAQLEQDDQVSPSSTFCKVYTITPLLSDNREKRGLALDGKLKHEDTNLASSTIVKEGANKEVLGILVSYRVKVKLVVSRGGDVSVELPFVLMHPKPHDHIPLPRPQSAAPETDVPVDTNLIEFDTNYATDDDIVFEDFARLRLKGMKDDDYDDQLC

[2] = target: T1, human sphingosine-1-phosphate receptor 1 (S1P1); experiment: Inhibition of cAMP production (HTRF cAMP HiRange), S1P1 CHO-K1 cells; format: cell-based; conditions: for Emax: CHO-K1, efficacy normalized to maximum efficacy of fingolimod, read-out: hS1P1 CAMP SPAN; for EC50: read-out: hS1P1 CAMP pEC50 (converted)
Summary of the method: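 Intracellular cAMP changes read by TR-FRET (HTRF HiRange, 1 h room temperature) after 30 min compound exposure at 37 °C. Cells: overnight-plated CHO-K1 stably expressing tagged human S1P1 with EA-β-arrestin2. Responses normalized to fingolimod.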
Target sequence in this assay (P21453 whole entry): as the sequence (P21453 whole entry) above

[3] = CHO-K1, β-arrestin2 recruitment
[4] = inhibition of cAMP production, potency
[5] = inhibition of cAMP production, S1P1

Row | Structure (SMILES) | Emax [1, 3] | EC50 ([1]; potency) | Emax ([2]; inhibition of cAMP production) | EC50 [2, 4] | Emax ([1]; CHO-K1) | EC50 ([1]; S1P1) | Emax [2] | EC50 [2, 5]
1 | CCC1(CC)CC(=O)c2cc(-c3nc(-c4ccc(N(C)C)cc4)no3)ccc2O1 [Compound 60, 6-(3-(4-(dimethyl-amino)phenyl)-1,2,4-oxadiazol-5-yl)-2,2-diethylchroman-4-one] | < 75% | > 10 µM | < 75% | > 316 nM |  |  |  | 
2 | CC(C)n1ccc2cc(-c3nc(-c4ccccc4F)cs3)cnc21 [Compound 402, 4-(2-fluorophenyl)-2-(1-isopropyl-1H-pyrrolo[2,3-b]pyridin-5-yl)thiazole] |  |  |  |  | < 75% | > 10 µM | < 75% | < 316 nM
3 | O=C1c2cc(-c3nc(-c4ccncc4)no3)ccc2OC(CO)(CO)C1Br (centres unmarked) [Compound 483, 3-bromo-2,2-bis(hydroxy-methyl)-6-[3-(pyridin-4-yl)-1,2,4-oxadiazol-5-yl]-3,4-dihydro-2H-1-benzopyran-4-one] |  |  |  |  | < 75% | > 10 µM | > 75% | > 316 nM
4 | COc1ccccc1-c1noc(-c2ccc3[nH]ncc3c2)n1 [Compound 371, 5-(1H-indazol-5-yl)-3-(2-methoxyphenyl)-1,2,4-oxadiazole] | < 75% | > 10 µM | < 75% | > 316 nM |  |  |  | 
5 | CCC1(CC)CC(=O)c2cc(-c3nc(-c4cc[nH]c4)no3)ccc2O1 [Compound 485, 6-(3-(1H-pyrrol-3-yl)-1,2,4-oxadiazol-5-yl)-2,2-diethylchroman-4-one] |  |  |  |  | > 75% | > 10 µM | > 75% | < 316 nM
6 | Brc1ccccc1-c1nc(-c2ccc3c(c2)nnn3Cc2ccncc2)no1 [Compound 48, 5-(2-bromophenyl)-3-(1-(pyridin-4-ylmethyl)-1H-benzo[d][1,2,3]triazol-5-yl)-1,2,4-oxadiazole] | < 75% | > 10 µM | < 75% | > 316 nM |  |  |  | 
7 | CN1C(=O)Cc2cc(-c3nc(-c4cccnc4)no3)ccc21 [Compound 377, 1-methyl-5-[3-(pyridin-3-yl)-1,2,4-oxadiazol-5-yl]-2,3-dihydro-1H-indol-2-one] |  |  |  |  | < 75% | > 10 µM | < 75% | > 316 nM
8 | CC(C)n1nnc2cc(-c3noc(-c4cccc5c4CCC5=O)n3)ccc21 [Compound 608, 4-{3-[1-(propan-2-yl)-1H-1,2,3-benzo-triazol-5-yl]-1,2,4-oxadiazol-5-yl}-2,3-dihydro-1H-inden-1-one] |  |  |  |  | > 75% | < 10 µM | > 75% | < 316 nM
9 | Cc1cccc2oc(-c3ccc4c(c3)nnn4CC(C)C)nc12 [Compound 447, 2-(1-isobutyl-1H-benzo[d][1,2,3]triazol-5-yl)-4-methyl-benzo[d]oxazole] |  |  |  |  | < 75% | < 10 µM | > 75% | < 316 nM
10 | COc1ccccc1-c1noc(-c2ccc3c(cnn3C(C)C)c2)n1 [Compound 370, 5-(1-isopropyl-1H-indazol-5-yl)-3-(2-methoxyphenyl)-1,2,4-oxadiazole] | > 75% | < 10 µM | > 75% | < 316 nM |  |  |  | 
11 | Cc1cn(C)nc1-c1noc(-c2ccc3c(c2)nnn3CC(C)(C)O)n1 [Compound 518, 1-{5-[3-(1,4-dimethyl-1H-pyrazol-3-yl)-1,2,4-oxadiazol-5-yl]-1H-1,2,3-benzotriazol-1-yl}-2-methylpropan-2-ol] |  |  |  |  | < 75% | > 10 µM | > 75% | > 316 nM
12 | Cc1ccccc1-c1csc(-c2ccc3c(ccn3C(C)C)n2)n1 [Compound 409, 2-(1-isopropyl-pyrrolo [3,2-b]pyridin-5-yl)-4-(o-tolyl)thiazole] |  |  |  |  | < 75% | > 10 µM | > 75% | > 316 nM
13 | CC1CC(=O)c2ccc(-c3nc(-c4ccncc4)no3)cc2O1 (centres unmarked) [Compound 536, 2-methyl-7-[3-(pyridin-4-yl)-1,2,4-oxadiazol-5-yl]-3,4-dihydro-2H-1-benzopyran-4-one] |  |  |  |  | < 75% | < 10 µM | < 75% | > 316 nM
14 | CCC1(CC)CC(=O)c2cc(-c3nc(-c4ccc5ncoc5c4)no3)ccc2O1 [Compound 622, 6-(3-(benzo[d]oxazol-6-yl)-1,2,4-oxadiazol-5-yl)-2,2-diethyl-chroman-4-one] |  |  |  |  | < 75% | > 10 µM | > 75% | < 316 nM
15 | CCCn1nnc2cc(-c3nc(-c4ccccc4)no3)ccc21 [Compound 160, 5-(3-phenyl-1,2,4-oxadiazol-5-yl)-1-propyl-1H-1,2,3-benzotriazole] | < 75% | > 10 µM | < 75% | > 316 nM |  |  |  | 
16 | CCC1(CC)CC(=O)c2cc(-c3nc(-c4cncc(OC)c4)no3)ccc2O1 [Compound 311, 2,2-diethyl-6-(3-(5-methoxypyridin-3-yl)-1,2,4-oxadiazol-5-yl)chroman-4-one] | > 75% | > 10 µM | > 75% | > 316 nM |  |  |  | 
17 | CCCCC1CC(=O)c2ccc(-c3nc(-c4cccnc4)no3)cc2O1 (centres unmarked) [Compound 633, 2-butyl-7-[3-(pyridin-3-yl)-1,2,4-oxadiazol-5-yl]-3,4-dihydro-2H-1-benzopyran-4-one] |  |  |  |  | < 75% | > 10 µM | < 75% | > 316 nM
18 | CCC1(CC)CC(=O)c2cc(-c3nc(-c4cncc(NC(C)=O)c4)no3)ccc2O1 [Compound 538, N-(5-(5-(2,2-diethyl-4-oxochroman-6-yl)-1,2,4-oxadiazol-3-yl)pyridin-3-yl)acetamide] |  |  |  |  | < 75% | < 10 µM | < 75% | < 316 nM
19 | COc1ccc2oc(-c3ccc4c(c3)nnn4C(C)C)nc2c1 [Compound 425, 2-(1-isopropyl-1H-benzo[d][1,2,3]triazol-5-yl)-5-methoxy-benzo[d]oxazole] |  |  |  |  | > 75% | < 10 µM | > 75% | < 316 nM
20 | Cc1cnc(-c2noc(-c3ccc4c(c3)nnn4C(C)C)n2)cn1 [Compound 157, 5-[3-(5-methylpyrazin-2-yl)-1,2,4-oxadiazol-5-yl]-1-(propan-2-yl)-1H-1,2,3-benzotriazole] | < 75% | > 10 µM | < 75% | > 316 nM |  |  |  | 
21 | CC(C)Nc1ccc(-c2nc(-c3ccc4c(c3)CCNC4=O)no2)cc1C#N [Compound 442, 2-(isopropylamino)-5-(3-(1-oxo-1,2,3,4-tetrahydroisoquinolin-6-yl)-1,2,4-oxadiazol-5-yl)benzonitrile] |  |  |  |  | > 75% | < 10 µM | > 75% | < 316 nM
22 | CCC1(CC)CC(=O)c2cc(-c3nc(-c4cccc(C)c4)no3)ccc2O1 [Compound 225, 2,2-diethyl-6-(3-(m-tolyl)-1,2,4-oxadiazol-5-yl)chroman-4-one] | < 75% | < 10 µM | > 75% | > 316 nM |  |  |  | 
23 | CCC1(CC)CC(=O)c2cc(-c3nc(-c4ccc5cnccc5c4)no3)ccc2O1 [Compound 522, 2,2-diethyl-6-(3-(isoquinolin-6-yl)-1,2,4-oxadiazol-5-yl)chroman-4-one] |  |  |  |  | > 75% | > 10 µM | > 75% | > 316 nM
24 | COc1ccccc1-c1noc(-c2ccc3[nH]ccc3c2)n1 [Compound 368, 5-(1H-indol-5-yl)-3-(2-methoxyphenyl)-1,2,4-oxadiazole] | < 75% | > 10 µM | < 75% | > 316 nM |  |  |  | 
25 | Cn1ccnc1-c1noc(-c2ccc3c(c2)nnn3CC(C)(C)O)n1 [Compound 567, 2-methyl-1-(5-[3-(1-methyl-1H-imidazol-2-yl)-1,2,4-oxadiazol-5-yl]-1H-1,2,3-benzotriazol-1-yl}propan-2-ol] |  |  |  |  | < 75% | > 10 µM | > 75% | > 316 nM
26 | c1ccc(-c2noc(-c3ccc4[nH]nnc4c3)n2)cc1 [Compound 113, 5-(3-phenyl-1,2,4-oxadiazol-5-yl)-1H-1,2,3-benzotriazole] | < 75% | > 10 µM | < 75% | > 316 nM |  |  |  | 
27 | CCC1(CC)CC(=O)c2cc(-c3nc(-c4cnc[nH]4)no3)ccc2O1 [Compound 466, 6-(3-(1H-imidazol-5-yl)-1,2,4-oxadiazol-5-yl)-2,2-diethylchroman-4-one] |  |  |  |  | > 75% | > 10 µM | > 75% | > 316 nM
28 | Cc1cnccc1-c1noc(-c2ccc3c(c2)nnn3CC(C)(C)O)n1 [Compound 597, 2-methyl-1-{5-[3-(3-methylpyridin-4-yl)-1,2,4-oxadiazol-5-yl]-1H-1,2,3-benzotriazol-1-yl}propan-2-ol] |  |  |  |  | > 75% | < 10 µM | > 75% | < 316 nM
29 | CSc1cccc(-c2nc(-c3ccc4c(c3)nnn4C3CCCC3)no2)c1 [Compound 47, 3-(1-cyclopentyl-1H-benzo[d][1,2,3]triazol-5-yl)-5-(3-(methylthio)phenyl)-1,2,4-oxadiazole] | < 75% | > 10 µM | < 75% | > 316 nM |  |  |  | 
